Reference: BindingDB's records for doi:10.7270/Q2TX3CTT (Broad Institute, 2010)

Molecular target: Glycogen synthase kinase-3 beta (Homo sapiens, UniProt P49841)
Assay: concentration-response blocking of human GSK3B – biochemical, luminescence, cell-free homogeneous, retest, dose response (AID 434954)

Chain of Glycogen synthase kinase-3 beta (P49841 whole entry): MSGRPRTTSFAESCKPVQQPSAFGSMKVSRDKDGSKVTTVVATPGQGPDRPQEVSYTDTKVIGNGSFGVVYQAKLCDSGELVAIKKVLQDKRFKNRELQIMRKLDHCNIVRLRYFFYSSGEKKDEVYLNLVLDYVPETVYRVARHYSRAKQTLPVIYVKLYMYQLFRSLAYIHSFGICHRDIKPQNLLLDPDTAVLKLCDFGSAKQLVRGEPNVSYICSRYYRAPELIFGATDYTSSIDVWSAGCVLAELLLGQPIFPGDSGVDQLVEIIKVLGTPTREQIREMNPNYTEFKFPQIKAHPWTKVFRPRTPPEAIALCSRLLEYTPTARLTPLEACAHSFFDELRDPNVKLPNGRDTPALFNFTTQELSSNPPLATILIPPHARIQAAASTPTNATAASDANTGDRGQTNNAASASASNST

Row | Structure (SMILES) | EC50 [µM]
1 | Cc1[nH]c2ccccc2c1Cc1nnc(SCC(N)=O)o1 [2-[[5-[(2-methyl-1H-indol-3-yl)methyl]-1,3,4-oxadiazol-2-yl]sulfanyl]acetamide] | > 300
2 | COc1ccc(N2CCN(CCNC(=O)c3nnc(Cc4c(F)cccc4Cl)o3)CC2)cc1 [MLS000083714] | > 300
3 | COc1ccc(C2C3=C(CC(C)(C)CC3=O)Nc3c2c(=O)nc2nc(C)[nH]n32)cc1 (stereo not drawn) [SMR000035838] | > 300
4 | Cc1ccc(NC(=O)C2CCN(S(=O)(=O)c3ccc4c(c3)NC(=O)C(C)S4)CC2)c(Cl)c1 (stereo not drawn) [SMR000630224] | > 300
5 | CCSc1nnc(-c2ccncc2)o1 [4-(5-Ethylsulfanyl-[1,3,4]oxadiazol-2-yl)-pyridine] | > 300
6 | O=C(c1cccnc1)C1CCCN(Cc2nc(Cc3ccccc3)no2)C1 (stereo not drawn) [[1-[[3-(phenylmethyl)-1,2,4-oxadiazol-5-yl]methyl]-3-piperidinyl]-(3-pyridinyl)methanone] | > 300
7 | COc1ccc(-c2cc(=O)oc3c(C)c(O)ccc23)cc1 [7-hydroxy-4-(4-methoxyphenyl)-8-methylchromen-2-one] | > 300
8 | COc1cccc(NC2=CC(=O)CC(C)(C)C2)c1 | > 300
9 | COc1cc2c(cc1OC)C(C)N(C(=O)c1ccc(Br)o1)CC2 (stereo not drawn) [SMR000269781] | > 300
10 | O=C(O)/C=C/c1cccc2c1OCCO2 [(E)-3-(2,3-dihydro-1,4-benzodioxin-5-yl)-2-propenoic acid] | > 300
11 | O=Cc1cn(-c2ccccc2)nc1-c1ccc(F)cc1 [3-(4-fluorophenyl)-1-phenyl-1H-pyrazole-4-carbaldehyde] | > 300
12 | COc1cccc(C(=O)Nc2nc3ccccc3s2)c1 [N-Benzothiazol-2-yl-3-methoxy-benzamide] | > 300
13 | Cc1ccnc(NC(=O)Cc2ccc([N+](=O)[O-])cc2)c1 [N-(4-methylpyridin-2-yl)-2-(4-nitrophenyl)ethanamide] | 21.4
14 | O=c1c(-c2ccccc2)c(-c2ccccc2)oc2cc(O)cc(O)c12 | 24.6
15 | CCNc1nc(N)c(C(=C(C#N)C#N)c2ccccc2)s1 | > 300
16 | Cc1c(C(=O)O)sc2ncnc(N3CCCCC3C)c12 (stereo not drawn) [5-methyl-4-(2-methyl-1-piperidinyl)thieno[2,3-d]pyrimidine-6-carboxylic acid] | > 300
17 | CC(C(=O)NC1CCCCCC1)n1cc([N+](=O)[O-])cn1 (stereo not drawn) [N-cycloheptyl-2-(4-nitro-1-pyrazolyl)propanamide] | > 300
18 | Cc1cc(Cl)nc(Cl)c1C(=O)N1CCOCC1 [SMR000307050] | > 300
19 | O=C1CN(C(=O)c2ccco2)c2ccccc2N1 [4-(Furan-2-carbonyl)-3,4-dihydro-1H-quinoxalin-2-one] | > 300
20 | COc1ccccc1N1CCN(/N=C/c2ccc(Cl)c([N+](=O)[O-])c2)CC1 | > 300
21 | CCN(CC)CCNc1nc(SC)nc2sc3c(c12)CCN(C)C3 | > 300
22 | O=[N+]([O-])c1ccccc1S(=O)(=O)N1CCc2ccccc2C1 [SMR000273931] | > 300
23 | CCOC(=O)CC(=O)CSc1ccc2nnc(-c3ccccc3)n2n1 [ethyl 3-oxo-4-[(3-phenyl[1,2,4]triazolo[4,3-b]pyridazin-6-yl)thio]butanoate] | > 300
24 | O=C(O)/C=C/C(=O)NCC1CCC(CNC(=O)/C=C/C(=O)O)CC1 (stereo not drawn) [(E)-4-[[4-[[[(E)-3-carboxy-1-oxoprop-2-enyl]amino]methyl]cyclohexyl]methylamino]-4-oxo-2-butenoic acid] | > 300
25 | CCN(CC)Cc1c(C(=O)NN=Cc2ccc(C)o2)nnn1-c1nonc1N [1-(4-amino-1,2,5-oxadiazol-3-yl)-5-(diethylaminomethyl)-N-[(5-methylfuran-2-yl)methylideneamino]triazole-4-carboxamide] | 23
26 | O=C1Nc2ccccc2Nc2ccc([N+](=O)[O-])cc21 [SMR000550741] | 25.4
27 | O=C(O)c1ccccc1N=NCc1ccnc2ccccc12 | > 300
28 | Cn1c(SCC(=O)Nc2ccc(Br)cn2)nnc1C1CC1 [N-(5-bromopyridin-2-yl)-2-[(5-cyclopropyl-4-methyl-1,2,4-triazol-3-yl)sulfanyl]acetamide] | 20.7
